Test [1] deals with T1, LDL-R (Homo sapiens, UniProt P01130).
T1 construct: western blot analyses for endogenous LDL-R; endogenous in cells; host or cells: HepG2
To be noted: added exogenously to growing HepG2 cells; cited from earlier work.

For test [2] the following is noted: Molecular Probes handbook; read-out: Kd with biotin; cited from earlier work.
Test [3] can be described thus: Model fluorescence quenching of FI-Bio-Ahx-Lys-Methyl ester (IIId) by biotin-binding proteins. Conditions: for maximal quenching of fluorescence intensity of (IIId): data not shown; for quenching of fluorescence intensity of (IIId): 8:1 molar ratio protein:(IIId), FIGS. 7A, 7B. Here is the method: FIG. 7A illustrates fluorescence scan spectroscopy of FI-Bio-Ahx-Lys-Methyl ester (IIId) in presence of avidin.
FIG. 7B illustrates fluorescence scan spectroscopy of FI-Bio-Ahx-Lys-Methyl ester (IIId) in presence of insulin as control peptide. […] For each experiment 5 μl of 0.5 mM (IIId) peptide in water was used.
Previously a number of studies reported that the interaction between two ligands one of which is fluorescence labeled can be followed by studying fluorescence intensity. In general the fluorescence intensity is suppressed with or without shift of emission peak position when there is a strong interaction between the two ligands. Greater the suppression or quenching of fluorescence intensity, greater is the strength of binding. In order to further confirm the above notion, a study was carried out by using a fixed concentration of fluorescent biotinylated peptide (IIId) and increasing doses of avidin protein. […] These avidin analogs with varying binding affinity towards biotin have been developed and made available through commercial organizations [Polyscience Inc., Technical Data Sheet Report-779]. […] This study confirms that fluorescence quenching is an indicator of binding between two ligands one of which is fluorescently labeled.

Test [4] deals with LDL-R. Kind of test: Rescue of LDL-R level in cells after addition of rec-PCSK9 protein (HuH7). In kind it is cell-based, human. Here is the method:
FIG. 13 illustrates (A) Western blot analyses showing the quantitation of LDL-R and PCSK9 levels under various conditions in HepG2 cells. These are western blot figures showing the effect of externally added FI-EGF-A peptide on exogenous levels of LDL-R and PCSK9 in growing HepG2 cells. The cells were harvested after 24 h and whole cell lysates were used for analysis of LDL-R, PCSK9 and actin levels both for control sample (DMSO) and FI-EGF-A done in duplicates. Actin was used as a house keeping control protein for quantitation purpose. (B): Rescue effect of FI-EGF-A peptide added in increasing concentration levels on LDL-R in growing HuH7 cells in the presence of added rec-PCSK9 protein. […]
(§1) In general 20 μg of WCLs derived from various peptide treated HepG2 cell experiments was resolved by conventional 12% SDS-PAGE (Laemmli, 1970 #2). Resolved samples were then transferred to polyvinylidene fluoride (Bio-Rad #162-0177) and probed for LDL-R (R&D Systems #AF2148), hPCSK9 (Circulex #CY-M1033), Transferrin Recepter (TR) (Invitrogen #13-6800), αβ-actin-HRP (Horse Radish Peroxidase) (abcam #ab49900) and αFLAG-HRP (abcam #1238) primary antibodies and detected with α goat-HRP (abcam #ab6741) or a mouse-HRP (Bio-Rad #172-1011) secondary antibodies and visualized on a Bio-Rad versa dock imaging system using Clarity ECL Western Substrate (Bio-Rad #170-5060). […]

The subject of test [5] is PCSK9. As to the kind of experiment: PCSK9 level in HepG2 cells by western blot of whole cell lysates. Conditions: HepG2, 12 μg/ml, 24 h; FIG. 13A. In kind it is cell-based, human. The protocol: (§2) FIG. 13 illustrates (A) Western blot analyses showing the quantitation of LDL-R and PCSK9 levels under various conditions in HepG2 cells. These are western blot figures showing the effect of externally added FI-EGF-A peptide on exogenous levels of LDL-R and PCSK9 in growing HepG2 cells. The cells were harvested after 24 h and whole cell lysates were used for analysis of LDL-R, PCSK9 and actin levels both for control sample (DMSO) and FI-EGF-A done in duplicates. Actin was used as a house keeping control protein for quantitation purpose. (B): Rescue effect of FI-EGF-A peptide added in increasing concentration levels on LDL-R in growing HuH7 cells in the presence of added rec-PCSK9 protein. Rec-PCSK9 was incubated with various amounts of FI-EGF-A for 3 h at room temp and then applied to cells growing in 2 mL media to the concentrations as indicated in the figure. The cells were harvested 7 h later.
(§3) FIG. 14 illustrates Western blots showing PCSK9 and LDL-R levels in the presence of various PCSK9 catalytic peptides in HepG2 cell. […]
The number passages of cell lines used were 6-8 times until they are at least 80% confluent as determined by microscope. […] All culture samples including whole cell lysate (WCL) were analysed for their protein contents using Pierce BCA (Bicinchoninic acid) reagent method or Bradford assay (Bio-Rad #500-0205) as described later. […]
In general terms: In western blotting, separated proteins are transferred to a membrane and probed.

Test [6] has as its target T1, LDL-R. As to the kind of experiment: LDL-R level in HepG2 cells by western blot of whole cell lysates. In kind it is cell-based. The protocol:
as §2, §3
The number passages of cell lines used were 6-8 times until they are at least 80% confluent as determined by microscope. […] All culture samples including whole cell lysate (WCL) were analysed for their protein contents using Pierce BCA (Bicinchoninic acid) reagent method or Bradford assay (Bio-Rad #500-0205) as described later.
as §1

The target of test [7] is T2, recombinant hPCSK9 wild type (Homo sapiens, UniProt Q8NBP7).
T2 construct: complex formation between 60 kDa rec-hPCSK9 mature form with 5 kDa FI-EGF-A; made in house
T2 sequence (Q8NBP7 153-692): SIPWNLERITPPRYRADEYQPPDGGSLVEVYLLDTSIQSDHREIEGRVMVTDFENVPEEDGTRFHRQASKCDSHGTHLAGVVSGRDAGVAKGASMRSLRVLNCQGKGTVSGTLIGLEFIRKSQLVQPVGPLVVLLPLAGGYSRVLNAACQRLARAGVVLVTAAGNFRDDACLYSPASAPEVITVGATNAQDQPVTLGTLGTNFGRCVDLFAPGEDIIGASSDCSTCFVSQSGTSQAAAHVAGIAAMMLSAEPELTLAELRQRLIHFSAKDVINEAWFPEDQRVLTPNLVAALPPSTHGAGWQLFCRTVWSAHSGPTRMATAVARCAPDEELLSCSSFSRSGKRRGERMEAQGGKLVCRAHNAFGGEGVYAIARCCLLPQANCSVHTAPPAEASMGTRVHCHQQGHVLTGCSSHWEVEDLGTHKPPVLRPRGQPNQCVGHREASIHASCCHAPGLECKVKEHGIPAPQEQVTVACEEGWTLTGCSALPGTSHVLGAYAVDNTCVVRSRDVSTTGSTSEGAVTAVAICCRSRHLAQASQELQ
T2 sequence (Q8NBP7 31-152 partner limits assumed): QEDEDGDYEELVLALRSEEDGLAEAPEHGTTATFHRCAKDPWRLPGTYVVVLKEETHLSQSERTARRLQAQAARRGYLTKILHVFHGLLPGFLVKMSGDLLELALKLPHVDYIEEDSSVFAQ
As to the kind of experiment: SDS-PAGE fluorescence / western blot binding of FI-EGF-A to recombinant FLAG-hPCSK9. To be noted: 5 μg FI-EGF-A + 1 μg rec-hPCSK9 WT, 2 h room temperature; fluorescent band at ~65 kDa; FIG. 12. Here is the method:
FIG. 12 illustrates SDS-Gel electrophoresis of FI-EGF-A peptide in presence and absence of recombinant hPCSK9 protein. 5 μg of FI-EGF-A (Ib) was incubated with 1 μg rec-hPCSK9 wild type (WT) for 2 h at room temperature. The samples were resolved in 10% SDS PAGE. Left: Fluorescence detection; Right: Western blot using anti-FLAG as primary antibody. There is a fluorescence positive band around 65 kDa (a mobility shift by ˜5 kDa) shown by thick arrow indicating complex formation between 60 kDa rec-hPCSK9 mature form with 5 kDa FI-EGF-A (Ib) (Left panel). […] It is also noticed that after incubation with FI-EGF-A peptide, the 74 kDa PCSK9 protein is not recognized by anti-FLAG antibody while the 60 kDa hPCSK9 protein is still recognized but with reduced potency. […]
Binding assays of various PCSK9 peptides were carried out by incubating 15 μg of each peptide (˜0.008 mM) with 20 μg of FL-EGF-A in a final volume of 20 μl of 25 mM HEPES (pH 7.4), 150 mM NaCl, 2 mM CaCl2 for 2 h at 37° C. Similar study was also performed using recPCSK9 wild type as well as D/Y variants against FI-EGF-A. Each sample along with the control without any added peptide was assessed for any binding between FI-EGF-A and peptide using fluorescence study, Mass spectrometry and Native gel studies […]

T1 sequence (P01130 22-860): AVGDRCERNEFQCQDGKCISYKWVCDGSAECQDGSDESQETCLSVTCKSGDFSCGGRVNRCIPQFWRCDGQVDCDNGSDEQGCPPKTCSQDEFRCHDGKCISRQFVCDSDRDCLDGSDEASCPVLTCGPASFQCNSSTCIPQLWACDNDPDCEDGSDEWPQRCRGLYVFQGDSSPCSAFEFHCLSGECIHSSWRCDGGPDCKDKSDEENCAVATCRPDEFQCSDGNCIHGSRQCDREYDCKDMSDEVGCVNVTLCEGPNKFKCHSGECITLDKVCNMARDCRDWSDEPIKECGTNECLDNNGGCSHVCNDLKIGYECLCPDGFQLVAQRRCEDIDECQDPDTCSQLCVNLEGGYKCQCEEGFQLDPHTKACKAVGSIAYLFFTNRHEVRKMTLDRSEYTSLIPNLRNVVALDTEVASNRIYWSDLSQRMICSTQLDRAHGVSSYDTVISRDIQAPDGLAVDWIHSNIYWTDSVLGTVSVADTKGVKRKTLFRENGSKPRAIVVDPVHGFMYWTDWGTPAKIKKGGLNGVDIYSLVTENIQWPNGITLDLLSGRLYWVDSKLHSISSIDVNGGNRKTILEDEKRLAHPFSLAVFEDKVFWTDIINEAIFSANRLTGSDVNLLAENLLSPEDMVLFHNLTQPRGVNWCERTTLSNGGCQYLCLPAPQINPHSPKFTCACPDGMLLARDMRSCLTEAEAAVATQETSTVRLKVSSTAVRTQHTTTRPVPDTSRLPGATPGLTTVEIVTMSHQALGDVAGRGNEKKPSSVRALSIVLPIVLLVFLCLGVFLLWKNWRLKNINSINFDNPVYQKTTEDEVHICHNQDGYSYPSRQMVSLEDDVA

Turning to “(aa368-390): peptide of catalytic segment of hPCSK9 (aa368-390) from a previous study (IIGASSDCSTCFVSQSGTSQAAA; UniProt Q8NBP7 368-390, looked up, fragment)”, the “LDL-R promoting effect (previous study)” value in test [1] is given as “modest LDL-R promoting effect”.
On to “streptavidin: avidin analog with binding affinity towards biotin”, for which the Kd in test [2] was about 0.1 nM. Also, the “maximal quenching of fluorescence intensity of (IIId)” value (from here on “maximal quenching”) in test [3] is reported as about 81.4%.
For “FI-EGF-A: 5-Carboxy Fluorescein N-terminally labeled 42 aa EGF-A domain peptide of hLDL-R (aa314-355)”, the “restoration of LDL-R level after rec-PCSK9” value in test [4] (HuH7 cells, rec-PCSK9 20 μg/ml, increasing amounts of FI-EGF-A, FIG. 13B) is “partly restored gradually”. Besides, the “PCSK9 level versus DMSO control” value in test [5] is “marked up regulation of PCSK9”. In addition, the “LDL-R level versus DMSO control” value in test [6] (HepG2, 12 μg/ml, 24 h, standardized against actin, FIG. 13A) is on record as “significant up regulation of the LDL-R”. Moreover, the “complex formation with recPCSK9” value in test [7] is recorded as “forms a stable complex”.
“Captavidin: avidin analog with binding affinity towards biotin”: the “maximal quenching” value in test [3] was 75.5%.
On to “Nutravidin: avidin analog with binding affinity towards biotin”, for which, in test [3], the “maximal quenching” value amounted to 85%.
As for ^365GEDIIGASSDASTCFVSQSG^384 [CP3-C/A], the “LDL-R promoting effect of acyclic mutant compared with CP3” value in test [6] (HepG2, FIG. 16) was “completely lost”.
In the case of GEDIIGASSDCSTCFVSQSG [CP3], in test [4] (cell line not stated at the place (HepG2 or HuH7)), the “rescue of LDL-R level following degradation by externally added PCSK9 protein” value was “can rescue LDL-R level to a significant level”. The LDL-R promoting activity result in test [6] (HepG2, 5.5 μM, FIG. 16) is listed as “modest but significant LDL-R promoting activity”.
On to “h insulin: control peptide which does not bind with biotin”, for which the “quenching of fluorescence intensity of (IIId)” value in test [3] turned out to be 30%.
Regarding avidin: biotin-binding protein, in test [3], the “quenching of fluorescence intensity of (IIId)” value is recorded as about 98%.
As for “(aa181-200): peptide of catalytic segment of hPCSK9 (aa181-200) from a previous study (EVYLLDTSIQSDHREIEGRV; UniProt Q8NBP7 181-200, looked up, fragment)”, in test [1], the “LDL-R promoting effect (previous study)” value is listed as “modest LDL-R promoting effect”.

In general, Kd refers to a measure of binding affinity in units of concentration.
